In patent publication US10815238B2, “Antimicrobial compounds and methods of making and using the same” (BIOVERSYS AG, priority 2013, dated 2020):

Tested on: Eschericia coli (E. coli) strain ATCC25922
Experiment: Standard microdilution assay, MIC against E. coli ATCC25922
Assay type: cell-based
Settings: Escherichia coli; E. coli strain ATCC25922, standard microdilution assay; cutoff 16 micrograms/mL; read-out: MIC E. Coli
In short: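 Scoring as + or − used a 16 micrograms/mL cutoff on minimum inhibitory concentrations. These came from CLSI-standard microdilution, quality-controlled with reference strains tested in the same run.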

Structure (SMILES) | MIC
CNCCNCc1ccc(-n2cc(-c3cc4cn(-c5ccc(CNCCNC)cc5)c(=O)nc4[nH]3)c(N)nc2=O)cc1 [Compound 125] | > 16 µg/mL
COc1ccc(CNCc2ccc(-n3cc4cc(-c5cc(CCC[C@H](C)N)cc(SC(F)(F)F)c5)[nH]c4nc3=O)cc2)cn1 [Compound 146] | > 16 µg/mL
C[C@H](N)CCCc1cc(SC(F)(F)F)cc(-c2cc3cn(-c4ccc(CN)cc4)c(=O)nc3[nH]2)c1 [Compound 137] | > 16 µg/mL
C[C@H](N)CCCc1cc(SC(F)(F)F)cc(-c2cc3cn(-c4ccc(CNCCC(=O)O)cc4)c(=O)nc3[nH]2)c1 [Compound 140] | > 16 µg/mL
C[C@H](N)CCCc1cc(Cl)c(F)c(-c2cc3cn(-c4ccc(CNCc5ccc(=O)[nH]c5)cc4)c(=O)nc3[nH]2)c1 [Compound 149] | > 16 µg/mL
C[C@H](N)CCCc1cc(Cl)c(F)c(-c2cc3cn(-c4ccc(CNCC[C@@H](N)C5CC5)cc4)c(=O)nc3[nH]2)c1 [Compound 148] | < 16 µg/mL
C[C@H](N)CCCc1cc(Cl)c(F)c(-c2cc3cn(-c4ccc(CNCCC(=O)O)cc4)c(=O)nc3[nH]2)c1 [Compound 139] | > 16 µg/mL

Second part, the molecule after the results:

MIC | Structure (SMILES)
< 16 µg/mL | C[C@H](N)CCCc1cc(Cl)c(F)c(-c2cc3cn(-c4ccc(CNCC[C@H](CCO)NC(=N)N)cc4)c(=O)nc3[nH]2)c1 [Compound 185]
< 16 µg/mL | C[C@H](N)CCCc1cc(-c2cc3cn(-c4ccc([C@H](C)N[C@@H](C)CCNC(=N)N)cc4)c(=O)nc3[nH]2)cc(C(F)(F)F)c1 [Compound 220]
< 16 µg/mL | N=C(N)NCCCN[C@@H](CCF)c1ccc(-n2cc3cc(-c4cc(CCC[C@@H](N)CF)cc(Cl)c4F)[nH]c3nc2=O)cc1 [Compound 168]
< 16 µg/mL | CC(C)[C@@H](N)CCNCc1ccc(-n2cc3cc(-c4cc(CCC[C@H](C)N)cc(Cl)c4F)[nH]c3nc2=O)cc1 [Compound 156]
< 16 µg/mL | C=CCN(CCCN[C@@H](C)c1ccc(-n2cc3cc(-c4cc(CCC[C@H](C)N)cc(C(F)(F)F)c4)[nH]c3nc2=O)cc1)C(=N)N [Compound 215]
< 16 µg/mL | C[C@H](N)CCCc1cc(Cl)c(F)c(-c2cc3cn(-c4ccc([C@H](CF)NCCCNC(=N)N)cc4)c(=O)nc3[nH]2)c1 [Compound 150]
< 16 µg/mL | N=C(N)NCCCNCc1ccc(-n2cc3cc(-c4ccc(/C=N/OCCNC(=N)N)cc4)[nH]c3nc2=O)cc1 [Compound 53]
< 16 µg/mL | C[C@H](N)CCCc1cc(Cl)c(F)c(-c2cc3cn(-c4ccc([C@H](C)NCC[C@@H](CCCN)NC(=N)N)cc4)c(=O)nc3[nH]2)c1 [Compound 281]
< 16 µg/mL | C=C[C@H](CCN[C@@H](C)c1ccc(-n2cc3cc(-c4cc(CCC[C@H](C)N)cc(Cl)c4F)[nH]c3nc2=O)cc1)NC(=N)N [Compound 236]
